Experiment [1] in a line: In vitro inhibition of binding of integrin alpha4-beta7 to immobilized MAdCAM-1 expressed on epithelial cell surface. Type of experiment: functional, cell-based.
Another experiment has as its target Integrin alpha-4/beta-1 (Homo sapiens, UniProt P05556+P13612). Kind of experiment: In vitro inhibition of binding of integrin alpha4-beta1 to immobilized VCAM-1 expressed on endothelial cell surface. The experiment is classed as functional, cell-based.
Experiment [2] in a line: Inhibition of integrin alpha4-beta7 binding to immobilized MAdCAM-1 (mucosal addressin cell adhesion molecule-1) of epithelial cells at 5 uM. Type of experiment: functional.

From ChEMBL document CHEMBL1147416, “Aza-bicyclic amino acid sulfonamides as alpha(4)beta(1)/alpha(4)beta(7) integrin antagonists” (Bioorg Med Chem Lett, 2004) come the findings set out here.

Sequence of Integrin alpha-4/beta-1 (P05556 whole entry): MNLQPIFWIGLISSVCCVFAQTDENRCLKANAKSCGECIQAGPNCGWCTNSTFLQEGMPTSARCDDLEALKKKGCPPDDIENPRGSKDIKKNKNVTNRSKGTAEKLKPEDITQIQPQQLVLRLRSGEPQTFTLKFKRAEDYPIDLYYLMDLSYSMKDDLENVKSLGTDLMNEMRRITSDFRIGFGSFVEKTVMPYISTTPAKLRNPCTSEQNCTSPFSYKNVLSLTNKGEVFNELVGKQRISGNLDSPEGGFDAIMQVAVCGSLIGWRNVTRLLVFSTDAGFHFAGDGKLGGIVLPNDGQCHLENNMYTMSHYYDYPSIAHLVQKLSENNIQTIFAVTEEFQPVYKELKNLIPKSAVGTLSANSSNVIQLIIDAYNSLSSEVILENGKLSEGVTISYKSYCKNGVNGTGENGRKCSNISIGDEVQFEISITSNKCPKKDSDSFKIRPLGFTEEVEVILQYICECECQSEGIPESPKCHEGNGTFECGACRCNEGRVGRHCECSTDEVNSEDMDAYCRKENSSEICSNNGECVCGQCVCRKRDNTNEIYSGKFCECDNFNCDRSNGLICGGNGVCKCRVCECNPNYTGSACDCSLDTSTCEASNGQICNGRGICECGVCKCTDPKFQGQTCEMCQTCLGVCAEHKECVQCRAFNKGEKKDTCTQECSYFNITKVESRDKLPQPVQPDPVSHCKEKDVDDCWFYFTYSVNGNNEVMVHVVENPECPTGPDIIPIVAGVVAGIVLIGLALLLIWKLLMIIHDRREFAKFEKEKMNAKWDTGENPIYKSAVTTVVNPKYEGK
Sequence of Integrin alpha-4/beta-1 (P13612 whole entry): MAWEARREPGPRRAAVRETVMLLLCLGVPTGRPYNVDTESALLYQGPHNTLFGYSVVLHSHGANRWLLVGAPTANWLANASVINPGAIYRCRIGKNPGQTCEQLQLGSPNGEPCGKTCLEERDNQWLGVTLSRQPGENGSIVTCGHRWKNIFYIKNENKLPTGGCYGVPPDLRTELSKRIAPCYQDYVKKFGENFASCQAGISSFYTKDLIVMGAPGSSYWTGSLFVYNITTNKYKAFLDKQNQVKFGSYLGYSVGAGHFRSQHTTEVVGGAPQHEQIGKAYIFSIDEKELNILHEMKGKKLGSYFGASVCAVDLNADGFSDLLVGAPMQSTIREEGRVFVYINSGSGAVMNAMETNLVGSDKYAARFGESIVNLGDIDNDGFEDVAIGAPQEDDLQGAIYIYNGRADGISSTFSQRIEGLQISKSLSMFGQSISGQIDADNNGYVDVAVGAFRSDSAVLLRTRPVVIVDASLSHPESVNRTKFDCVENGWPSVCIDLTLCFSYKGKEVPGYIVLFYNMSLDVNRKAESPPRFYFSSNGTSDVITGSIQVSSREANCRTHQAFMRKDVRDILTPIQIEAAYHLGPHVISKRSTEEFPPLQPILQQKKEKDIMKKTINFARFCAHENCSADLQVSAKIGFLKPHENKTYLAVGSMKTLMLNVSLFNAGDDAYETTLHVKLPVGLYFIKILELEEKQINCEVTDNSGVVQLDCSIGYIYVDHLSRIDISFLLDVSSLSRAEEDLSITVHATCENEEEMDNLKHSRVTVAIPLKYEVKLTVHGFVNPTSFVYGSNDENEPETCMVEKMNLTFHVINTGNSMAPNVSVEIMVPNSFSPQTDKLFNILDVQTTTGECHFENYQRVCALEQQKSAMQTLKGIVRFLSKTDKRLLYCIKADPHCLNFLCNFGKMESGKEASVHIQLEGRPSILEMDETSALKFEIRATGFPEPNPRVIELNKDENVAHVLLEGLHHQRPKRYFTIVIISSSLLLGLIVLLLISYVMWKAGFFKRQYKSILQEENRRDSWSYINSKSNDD

On to `Cc1ccc(S(=O)(=O)N2C3CCC(CC3)C2C(=O)N[C@@H](Cc2ccc(NC(=O)c3c(Cl)cc(Cl)cc3Cl)cc2)C(=O)O)cc1` (some centres undefined), for which the IC50 (in general, the point on the concentration scale where inhibition reaches its midpoint) in experiment [1] was 430 nM.

For `CC(=O)N1CSC[C@@H]1C(=O)N[C@@H](Cc1ccc(OCc2c(Cl)cccc2Cl)cc1)C(=O)O`, the IC50 worked out at 90 nM in experiment [1] and 410 nM at Integrin alpha-4/beta-1. Consider `COc1cccc(OC)c1-c1ccc(C[C@H](NC(=O)[C@@H]2C[C@@H](c3ccccc3)CN2S(=O)(=O)c2ccccc2)C(=O)O)cc1`, for which the half-maximal inhibitory concentration (IC50) in experiment [1] was determined as 119 nM; on Integrin alpha-4/beta-1, 30 nM. In the same order, the values of `O=C(Nc1ccc(C[C@H](NC(=O)[C@@H]2C3CCC(CC3)N2S(=O)(=O)c2ccccc2)C(=O)O)cc1)c1cc(Cl)nc(Cl)c1` are 13 nM and 12 nM.

Compound `Cc1ccc(S(=O)(=O)N2C3CCC(CC3)C2C(=O)N[C@@H](Cc2ccc(NC(=O)c3c(Cl)cccc3Cl)cc2)C(=O)O)cc1` (some centres undefined) gave an IC50 in experiment [1] of 320 nM.

`O=C(O)[C@H](Cc1ccc(N2C(=O)c3ccccc3C2=O)cc1)NC(=O)[C@@H]1C2CCC(CC2)N1S(=O)(=O)c1ccccc1` gave an IC50 in experiment [1] of 312 nM. This IC50 and that of the compound before are within 1.5-fold of each other. For the compound `O=C(Nc1ccc(C[C@H](NC(=O)C2C3CCC(CC3)N2S(=O)(=O)c2cc(Cl)c(Cl)s2)C(=O)O)cc1)c1cc(Cl)nc(Cl)c1` (some centres undefined), the results for the IC50 (in experiment [1]; on Integrin alpha-4/beta-1) were 14 nM and 69 nM, respectively. `Cc1ccc(S(=O)(=O)N2C3CCC(CC3)C2C(=O)N[C@@H](Cc2ccc(NC(=O)c3ccccc3)cc2)C(=O)O)cc1` (some centres undefined): the inhibition – broadly, the share of the control response that was lost under treatment – at 5 µM in experiment [2] is 30%. For the compound `O=C(Nc1ccc(C[C@H](NC(=O)[C@@H]2C3CCC(CC3)N2S(=O)(=O)c2cccs2)C(=O)O)cc1)c1cc(Cl)nc(Cl)c1`, the IC50 amounted to 32 nM in experiment [1] and 5 nM at Integrin alpha-4/beta-1.

On to `O=C(Nc1ccc(C[C@H](NC(=O)[C@@H]2C3CCC(CC3)N2S(=O)(=O)c2cccc3ccncc23)C(=O)O)cc1)c1cc(Cl)nc(Cl)c1`, for which the results for the IC50 (in experiment [1]; on Integrin alpha-4/beta-1) were 22 nM and 12 nM, respectively. `O=C(Nc1ccc(C[C@H](NC(=O)[C@H]2C3CCC(CC3)N2S(=O)(=O)c2ccccc2)C(=O)O)cc1)c1c(Cl)cccc1Cl` gave a half-inhibitory concentration (IC50) at Integrin alpha-4/beta-1 of 1600 nM. Take `O=C(Nc1ccc(C[C@H](NC(=O)[C@@H]2C3CCC(CC3)N2S(=O)(=O)c2cccs2)C(=O)O)cc1)c1c(Cl)cccc1Cl`: the results for the IC50 (in experiment [1]; at Integrin alpha-4/beta-1) were 62 nM and 30 nM, respectively. For `O=C(Nc1ccc(C[C@H](NC(=O)C2C3CCC(CC3)N2S(=O)(=O)c2ccccc2C(F)(F)F)C(=O)O)cc1)c1cc(Cl)nc(Cl)c1` (some centres undefined) the same measures were 102 nM and 81 nM.

As for `O=C(Nc1ccc(C[C@H](NC(=O)[C@@H]2C3CCC(CC3)N2S(=O)(=O)c2ccccc2)C(=O)O)cc1)c1c(Cl)cccc1Cl`, the IC50 in experiment [1] turned out to be 94 nM; at Integrin alpha-4/beta-1 it was 19 nM. In the same order, the values of `O=C(Nc1ccc(C[C@H](NC(=O)C2C3CCC(CC3)N2S(=O)(=O)c2ccc(Cl)s2)C(=O)O)cc1)c1cc(Cl)nc(Cl)c1` (some centres undefined) are 64 nM and 11 nM. Take `COc1cccc(OC)c1-c1ccc(C[C@H](NC(=O)[C@@H]2C3CCC(CC3)N2S(=O)(=O)c2ccccc2)C(=O)O)cc1`: in experiment [1], the IC50 came out at 90 nM. Regarding `O=C(Nc1ccc(C[C@H](NC(=O)[C@@H]2C3CCC(CC3)N2S(=O)(=O)c2ccccc2)C(=O)O)cc1)c1ccncc1`, the IC50 in experiment [1] is 175 nM; on Integrin alpha-4/beta-1 it was 36 nM.

`Cc1ccc(S(=O)(=O)N2C3CCC(CC3)C2C(=O)N[C@@H](Cc2ccc(NC(=O)Nc3c(Cl)cccc3Cl)cc2)C(=O)O)cc1` (some centres undefined): on Integrin alpha-4/beta-1, the IC50 amounted to 1600 nM.

On to `O=C(Nc1ccc(C[C@H](NC(=O)C2C3CCC(CC3)N2S(=O)(=O)c2c(Cl)cccc2Cl)C(=O)O)cc1)c1cc(Cl)nc(Cl)c1` (some centres undefined), for which the IC50 turned out to be 11 nM in experiment [1] and 105 nM on Integrin alpha-4/beta-1.

The compound `Cc1ccc(S(=O)(=O)N2C3CCC(CC3)C2C(=O)N[C@@H](Cc2ccc(NC(=O)Cc3c(Cl)cccc3Cl)cc2)C(=O)O)cc1` (some centres undefined) returned an inhibition at 5 µM in experiment [2] of 28%. `O=C(Nc1ccc(C[C@H](NC(=O)[C@@H]2C3CCC(CC3)N2S(=O)(=O)c2cccc3cccnc23)C(=O)O)cc1)c1cc(Cl)nc(Cl)c1`: the figures for the half-inhibitory concentration (IC50) (in experiment [1]; on Integrin alpha-4/beta-1) were 151 nM and 150 nM, respectively.
